A word on the inhibition: it is the change of the read-out against control, counted positive when it falls.

One experiment concerns HCT116 cells. Put plainly: Whole cell cytotoxicity assay: Sulforhodamine B. Format: cell-based. The following applies: Homo sapiens, HCT-116; 100 μM compound; 48 hours incubation with drug; Sulforhodamine B staining; read-out: % Inhibition of HCT116 cell growth @ 100 μM. How it is done: [The source words this procedure for another cell line and reports this cell line under the same test.] The following procedure can be found on the Developmental Therapeutics Program NCl/NIH web site at http://dtp.nci.nih.gov/brancehes/btb/ivclsp.html. • 1. Human tumor cell lines of HT29, A549 and MCF7 are grown in DMEM containing 10% fetal bovine serum and 2 mM L-glutamine. Cells are plated in a 96 well plate at a density of 5000 cells per well in 100 μL of growth medium and incubated at 37° C., 5% CO2, for 24 hours prior to the addition of experimental compounds. • 2. Experimental drugs are solubilized in DMSO for a final concentration of 20 mM immediately prior to use. Drugs are further diluted in growth media for a total of nine drug concentrations and a growth control. At the 24 hour time point, one plate of cells is fixed in situ with TCA as a measurement of the cell population at time zero, or the time of drug addition. • 3. The plates are further incubated with drug for an additional 48 hours. • 4. The cells are fixed in situ by gently aspirating off the culture media and then adding 50 μL of ice cold 10% TCA per well and incubated at 4° C. for 60 minutes. The plates are washed with tap water five times and allowed to air dry for 5 minute. • 5. 50 μL of a 0.4% (w/v) Sulforhodamine B solution in 1% (v/v) acetic acid is added per well and incubated for 30 minutes at room temperature. • 6. Following staining, plates are washed five times with 1% acetic acid to remove any unbound dye and then allowed to air dry for 5 minutes. • 7. Stain is solubilized with 100 μL of 10 mM Tris pH 10.5 per well and placed on an orbital rotator for 5 minutes. • 8. Absorbance is read at 570 nm.

The next experiment concerns HDAC. Nature of the experiment: In vitro fluorescent histone deacetylase assay (Biomol HDAC fluorescent activity kit, HeLa cell nuclear extract). Format: biochemical. Particulars: 100 μM compound; HeLa cell nuclear extract as source of HDAC activity; 50 μM substrate, 10 min at room temperature. On the procedure: Histone deacetylase (HDAC) activity assays were performed using the HDAC fluorescent activity assay/drug discovery kit (Biomol Research Laboratories, Plymouth Meeting, Pa.) essentially according to the manufacturer's instructions. The included HeLa cell nuclear extract, which contains a mosaic of HDAC enzymes and other nuclear factors, was used as the source of HDAC activity. The final substrate concentration in the assay mixture was 50 μM. The reaction was allowed to proceed for 10 min at room temperature before stopping the reaction. Test compounds were prepared as 20 mM stock solutions in DMSO (Molecular Biology grade, Sigma-Aldrich Co., St. Louis, Mo.) and stored at −70° C. Serial dilutions of test compounds were prepared in assay buffer immediately prior to testing. DMSO was determined in a separate trial to have no significant effect on the activity of this assay at concentrations up to 5%; the final DMSO concentration in the wells was no more than 2% and therefore DMSO effects were safely neglected. Assays were performed in white polystyrene 96-well half-area assay plates (Corning, Corning, N.Y.) and measured on a Wallace 1420 fluorescent plate reader (Wallac Oy, Turku, Finland) with an excitation wavelength of 355 nm, an emission wavelength of 460 nm, and a 1 sec signal averaging time.

Consider `O=C(/C=C/c1ccc(N2CCc3c([nH]c4ccccc34)C2)cc1)NO` [Example 22, (2E)-N-hydroxy-3-[4-(1,3,4,9-tetrahydro-2H-b-carbolin-2-yl)phenyl]acrylamide], for which the inhibition at 100 µM in the experiment on HCT116 cells stood at 98.2%. The “% Inhibition of HDAC @ 100 μM” value in the experiment with HDAC was found to be 98.2%.

For the compound `O=C(NO)c1cnc(N2CCc3c(n(CCN4CCCC4)c4ccccc34)C2)nc1` [Example 23, N-hydroxy-2-{9-[2-pyrrolidin-1-ylethyl]-1,3,4,9-tetrahydro-2H-b-carbolin-2-yl}pyrimidine-5-carboxamide], the inhibition at 100 µM in the experiment on HCT116 cells stood at 98.1%. Also, in the experiment on HDAC, the “% Inhibition of HDAC @ 100 μM” value worked out at 99.3%.

As to `O=C(NO)c1cnc(N2CCc3c(n(CCN4CCCCC4)c4ccccc34)C2)nc1` [Example 24, N-hydroxy-2-[9-(2-piperidin-1-ylethyl)-1,3,4,9-tetrahydro-2H-b-carbolin-2-yl]pyrimidine-5-carboxamide], the inhibition at 100 µM with HCT116 cells stood at 98.9%. The “% Inhibition of HDAC @ 100 μM” value with HDAC is listed as 99%.

On to `O=C(NO)c1cnc(N2CCc3c(n(CCN4CCOCC4)c4ccccc34)C2)nc1` [Example 25, N-hydroxy-2-[9-(2-morpholin-4-ylethyl)-1,3,4,9-tetrahydro-2H-b-carbolin-2-yl]pyrimidine-5-carboxamide], for which the inhibition at 100 µM with HCT116 cells came to 94%. Besides, the “% Inhibition of HDAC @ 100 μM” value in the experiment with HDAC turned out to be 98%.

Take `O=C(NO)c1cnc(N2CCc3c(n(S(=O)(=O)c4ccccc4)c4ccccc34)C2)nc1` [Example 26, N-hydroxy-2-[9-(phenylsulfonyl)-1,3,4,9-tetrahydro-2H-b-carbolin-2-yl]pyrimidine-5-carboxamide]: the inhibition at 100 µM in the experiment with HCT116 cells was determined as 99%. In the experiment with HDAC, the “% Inhibition of HDAC @ 100 μM” value was found to be 98.9%.

As for `Cn1c2c(c3ccccc31)CCN(c1ncc(C(=O)NO)cn1)C2` [Example 27, N-hydroxy-2-(9-methyl-1,3,4,9-tetrahydro-2H-b-carbolin-2-yl)pyrimidine-5-carboxamide], the inhibition at 100 µM in the experiment on HCT116 cells stood at 98.9%. Moreover, in the experiment on HDAC, the “% Inhibition of HDAC @ 100 μM” value stood at 98.3%.

`O=C(NO)c1cnc(N2CCc3c(n(Cc4ccccc4)c4ccccc34)C2)nc1` [Example 28, N-hydroxy-2-(9-benzyl-1,3,4,9-tetrahydro-2H-b-carbolin-2-yl)pyrimidine-5-carboxamide]: the inhibition at 100 µM in the experiment on HCT116 cells stood at 98.7%. The “% Inhibition of HDAC @ 100 μM” value in the experiment on HDAC worked out at 95.2%.

As for `CC(=O)n1c2c(c3ccccc31)CCN(c1ncc(C(=O)NO)cn1)C2` [Example 29, 2-(9-acetyl-1,3,4,9-tetrahydro-2H-b-carbolin-2-yl)-N-hydroxypyrimidine-5-carboxamide], the inhibition at 100 µM in the experiment with HCT116 cells stood at 98%. In addition, the “% Inhibition of HDAC @ 100 μM” value in the experiment with HDAC is 99.8%.

As for `O=C(NO)c1cnc(N2CCc3c(n(CN4CCCC4)c4ccccc34)C2)nc1` [Example 30, N-hydroxy-2-{9-[2-pyrrolidin-1-ylmethyl]-1,3,4,9-tetrahydro-2H-b-carbolin-2-yl}pyrimidine-5-carboxamide], in the experiment on HCT116 cells, the inhibition at 100 µM came out at 96.8%. Further, the “% Inhibition of HDAC @ 100 μM” value in the experiment with HDAC is 98.1%.

Regarding `COc1ccc2c(c1)CN(c1ncc(C(=O)NO)cn1)CC2` [Example 31, 2-(7-methoxy-3,4,dihydroisoquinolin-2(1H)-yl)-N-hydroxypyrimidine-5-carboxamide], the inhibition at 100 µM with HCT116 cells worked out at 99.5%. Further, in the experiment with HDAC, the “% Inhibition of HDAC @ 100 μM” value came out at 100%.

Consider `O=C(NO)c1cnc(N2Cc3cccc4cccc(c34)C2)nc1` [Example 32, 2-(1H-benzo[de]isoquinolin-2(3H)-yl)-N-hydroxypyrimidine-5-carboxamide], for which the inhibition at 100 µM in the experiment on HCT116 cells worked out at 94.6%. Moreover, the “% Inhibition of HDAC @ 100 μM” value in the experiment with HDAC stood at 96.6%.

As to `Cc1cc2c3c([nH]c2cc1Cl)CCN(c1ncc(C(=O)NO)cn1)C3` [Example 34, N-hydroxy-2-(7-chloro-8-methyl-1,3,4,5-tetrahydro-2H-pyrido[4,3-b]indol-2-yl)pyrimidine-5-carboxamide], the inhibition at 100 µM in the experiment on HCT116 cells is 99.3%. In the experiment on HDAC, the “% Inhibition of HDAC @ 100 μM” value is 99.1%.

On to `O=C(NO)c1cnc(N2CCc3[nH]c4cc(F)ccc4c3C2)nc1` [Example 35, N-hydroxy-2-(7-fluoro-1,3,4,5-tetrahydro-2H-pyrido[4,3-b]indol-2-yl)pyrimidine-5-carboxamide], for which the inhibition at 100 µM with HCT116 cells is 97.3%. Moreover, the “% Inhibition of HDAC @ 100 μM” value with HDAC is on record as 99.9%.

`Cc1ccc2c3c([nH]c2c1)CCN(c1ncc(C(=O)NO)cn1)C3` [Example 36, N-hydroxy-2-(7-methyl-1,3,4,5-tetrahydro-2H-pyrido[4,3-b]indol-2-yl)pyrimidine-5-carboxamide]: the inhibition at 100 µM with HCT116 cells was 98.3%. Further, the “% Inhibition of HDAC @ 100 μM” value in the experiment with HDAC came out at 99.8%.

Turning to `O=C(NO)c1cnc(N2CCc3[nH]c4ccc([N+](=O)[O-])cc4c3C2)nc1` [Example 37, N-hydroxy-2-(8-nitro-1,3,4,5-tetrahydro-2H-pyrido[4,3-b]indol-2-yl)pyrimidine-5-carboxamide], the inhibition at 100 µM in the experiment with HCT116 cells was found to be 97.1%. In addition, the “% Inhibition of HDAC @ 100 μM” value in the experiment on HDAC was 99.9%.

As for `CC(C)c1ccc2[nH]c3c(c2c1)CN(c1ncc(C(=O)NO)cn1)CC3` [Example 38, N-hydroxy-2-{8-isopropyl-1,3,4,5-tetrahydro-2H-pyrido[4,3-b]indol-2-yl}pyrimidine-5-carboxamide], the inhibition at 100 µM in the experiment on HCT116 cells came to 99.5%. Also, the “% Inhibition of HDAC @ 100 μM” value in the experiment with HDAC turned out to be 99.8%.

With `CC(C)(C)c1ccc2[nH]c3c(c2c1)CN(c1ncc(C(=O)NO)cn1)CC3` [Example 39, N-hydroxy-2-{8-tert-butyl-1,3,4,5-tetrahydro-2H-pyrido[4,3-b]indol-2-yl}pyrimidine-5-carboxamide], the inhibition at 100 µM with HCT116 cells stood at 99.4%. Further, in the experiment on HDAC, the “% Inhibition of HDAC @ 100 μM” value came to 98.8%.

As to `COc1ccc(-c2ccc3[nH]c4c(c3c2)CN(c2ncc(C(=O)NO)cn2)CC4)cc1` [Example 40, N-hydroxy-2-{8-[4-methoxyphenyl]-1,3,4,5-tetrahydro-2H-pyrido[4,3-b]indol-2-yl}pyrimidine-5-carboxamide], the inhibition at 100 µM in the experiment with HCT116 cells was found to be 98.3%. Besides, the “% Inhibition of HDAC @ 100 μM” value with HDAC was found to be 99.8%.

`Cc1ccc(-c2ccc3[nH]c4c(c3c2)CN(c2ncc(C(=O)NO)cn2)CC4)cc1` [Example 41, N-hydroxy-2-{8-[4-methylphenyl]-1,3,4,5-tetrahydro-2H-pyrido[4,3-b]indol-2-yl}pyrimidine-5-carboxamide]: the inhibition at 100 µM with HCT116 cells amounted to 98.7%. Moreover, the “% Inhibition of HDAC @ 100 μM” value in the experiment on HDAC is on record as 99.6%.

`O=C(NO)c1cnc(N2CCc3[nH]c4ccc(-c5cccc(CO)c5)cc4c3C2)nc1` [Example 43, N-hydroxy-2-{8-[3-(hydroxymethyl)phenyl]-1,3,4,5-tetrahydro-2H-pyrido[4,3-b]indol-2-yl}pyrimidine-5-carboxamide]: in the experiment on HCT116 cells, the inhibition at 100 µM was 98.7%. In addition, the “% Inhibition of HDAC @ 100 μM” value in the experiment on HDAC is listed as 100%.

Consider `O=C(NO)c1cnc(N2CCc3[nH]c4ccc(-c5cccc(F)c5)cc4c3C2)nc1` [Example 44, N-hydroxy-2-{8-[3-fluorophenyl]-1,3,4,5-tetrahydro-2H-pyrido[4,3-b]indol-2-yl}pyrimidine-5-carboxamide], for which the inhibition at 100 µM in the experiment with HCT116 cells was 97.6%. Besides, the “% Inhibition of HDAC @ 100 μM” value in the experiment with HDAC is on record as 99.9%.

Turning to `O=C(NO)c1cnc(N2CCc3[nH]c4ccc(-c5ccc(F)cc5)cc4c3C2)nc1` [Example 45, N-hydroxy-2-{8-[4-fluorophenyl]-1,3,4,5-tetrahydro-2H-pyrido[4,3-b]indol-2-yl}pyrimidine-5-carboxamide], the inhibition at 100 µM in the experiment on HCT116 cells turned out to be 98.9%. Moreover, the “% Inhibition of HDAC @ 100 μM” value with HDAC was 99.9%.

As for `O=C(NO)c1cnc(N2CCc3[nH]c4ccc(-c5ccco5)cc4c3C2)nc1` [Example 46, N-hydroxy-2-{8-(fur-2-yl)-1,3,4,5-tetrahydro-2H-pyrido[4,3-b]indol-2-yl}pyrimidine-5-carboxamide], the inhibition at 100 µM in the experiment with HCT116 cells came to 98.6%. Moreover, the “% Inhibition of HDAC @ 100 μM” value in the experiment with HDAC is 99.8%.

Consider `CN(C)c1ccc(-c2ccc3[nH]c4c(c3c2)CN(c2ncc(C(=O)NO)cn2)CC4)cc1` [Example 48, N-hydroxy-2-{8-[4-dimethylaminophenyl]-1,3,4,5-tetrahydro-2H-pyrido[4,3-b]indol-2-yl}pyrimidine-5-carboxamide], for which, in the experiment with HCT116 cells, the inhibition at 100 µM is 97.8%. Also, the “% Inhibition of HDAC @ 100 μM” value in the experiment with HDAC came out at 99.7%.

For the origin of these results see US7772245B2, “Inhibitors of histone deacetylase” (Miikana Therapeutics, Inc., priority 2005, dated 2010).
